From US8802597B2, “Herbicidal pyrimidines” (E I du Pont de Nemours and Company, priority 2003, dated 2014)

Experiments:
Test in all cases: Test C pre/postemergence
Format in all cases: in vivo
[1] = test system: corn (Zea mays)
Procedure, shortened: (§1)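 Rating scale 0–100: 0 means no effect, 100 complete control; taken visually 12 to 14 days post-treatment versus controls. Pre- and postemergence greenhouse applications, postemergence at 1- to 4-leaf stage, non-phytotoxic solvent with surfactant as carrier.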

[2] = test system: morningglory (Ipomoea coccinea)
Procedure, shortened: as §1

[3] = test system: woolly cupgrass (Eriochloa villosa)
Procedure, shortened: as §1

[4] = Postemergence, 62 g ai/ha, scale 0 to 100 (0 no effect, 100 complete control)
[5] = Postemergence, 125 g ai/ha, scale 0 to 100 (0 no effect, 100 complete control)
[6] = Preemergence, 16 g ai/ha, scale 0 to 100, 0 no effect, 100 complete control
[7] = Preemergence, 31 g ai/ha, scale 0 to 100, 0 no effect, 100 complete control
[8] = Preemergence, 62 g ai/ha, scale 0 to 100, 0 no effect, 100 complete control
[9] = Preemergence, 125 g ai/ha, scale 0 to 100
[10] = Postemergence, 250 g ai/ha, scale 0 to 100
[11] = Postemergence, 500 g ai/ha, scale 0 to 100
[12] = Preemergence, 250 g ai/ha, scale 0 to 100
[13] = Preemergence, 500 g ai/ha, scale 0 to 100

## CCOC(=O)c1nc(C2CC2)nc(NN)c1Br [Compound 42]
[1]; Zea mays, post-emergence, Postemergence, 31 g ai/ha, read-out: Plant response rating (scale of 0 to 100), Corn
  Corn plant response rating (crop injury, 0 = no effect, 100 = complete kill) at 31 g/ha: 0%
[1]; Zea mays, post-emergence, Postemergence, 62 g ai/ha, scale 0 to 100 (0 no effect, 100 complete control), read-out: Corn plant response rating
  Corn plant response rating (crop injury, 0 = no effect, 100 = complete kill) at 62 g/ha: 0%
[1]; Zea mays, post-emergence, Postemergence, 125 g ai/ha, scale 0 to 100 (0 no effect, 100 complete control), read-out: Corn plant response rating
  Corn plant response rating (crop injury, 0 = no effect, 100 = complete kill) at 125 g/ha: 0%
[1]; Zea mays, post-emergence, Postemergence, 250 g ai/ha, scale 0 to 100
  Corn plant response rating (crop injury, 0 = no effect, 100 = complete kill) at 250 g/ha: 0%
[2]; Ipomoea, post-emergence, Postemergence, 31 g ai/ha, read-out: Plant response rating (scale of 0 to 100), Morningglory
  pest or weed control at 31 g/ha: 0%
[2]; Ipomoea, post-emergence, Postemergence, 62 g ai/ha, scale 0 to 100 (0 no effect, 100 complete control), read-out: Morningglory plant response rating
  pest or weed control at 62 g/ha: 50%
[2]; Ipomoea, post-emergence, Postemergence, 125 g ai/ha, scale 0 to 100 (0 no effect, 100 complete control), read-out: Morningglory plant response rating
  pest or weed control at 125 g/ha: 80%
[2]; Ipomoea, post-emergence, Postemergence, 250 g ai/ha, scale 0 to 100, read-out: Plant response rating, Morningglory
  pest or weed control at 250 g/ha: 85%
[3]; Eriochloa villosa, post-emergence, Postemergence, 31 g ai/ha, read-out: Plant response rating (scale of 0 to 100), Cupgrass, Woolly
  pest or weed control at 31 g/ha: 0%
[3]; Eriochloa villosa, post-emergence, Postemergence, 62 g ai/ha, scale 0 to 100 (0 no effect, 100 complete control), read-out: Cupgrass, Woolly plant response rating
  pest or weed control at 62 g/ha: 0%
[3]; Eriochloa villosa, post-emergence, Postemergence, 125 g ai/ha, scale 0 to 100 (0 no effect, 100 complete control), read-out: Cupgrass, Woolly plant response rating
  pest or weed control at 125 g/ha: 0%
[3]; Eriochloa villosa, post-emergence, Postemergence, 250 g ai/ha, scale 0 to 100, read-out: Plant response rating, Cupgrass, Woolly
  pest or weed control at 250 g/ha: 5%

## CCOC(=O)C(OC(C)=O)c1nc(C2CC2)nc(N)c1Br (centres unmarked) [Compound 47]
[1]; Postemergence, 16 g ai/ha
  Plant response rating (scale of 0 to 100), Corn: 0
[1]; Postemergence, 31 g ai/ha
  Plant response rating (scale of 0 to 100), Corn: 0
[1]; [4]
  Corn plant response rating: 0
[1]; [5]
  Corn plant response rating: 0
[1]; [6]
  Plant response rating, Corn: 0
[1]; [7]
  Plant response rating, Corn: 0
[1]; [8]
  Plant response rating, Corn: 0
[1]; [9]
  Plant response rating, Corn: 0
[2]; Postemergence, 16 g ai/ha
  Plant response rating (scale of 0 to 100), Morningglory: 20
[2]; Postemergence, 31 g ai/ha
  Plant response rating (scale of 0 to 100), Morningglory: 35
[2]; [4]
  Morningglory plant response rating: 40
[2]; [5]
  Morningglory plant response rating: 65
[2]; [6]
  Plant response rating, Morningglory: 0
[2]; [7]
  Plant response rating, Morningglory: 0
[2]; [8]
  Plant response rating, Morningglory: 70
[2]; [9]
  Plant response rating, Morningglory: 100
[3]; Postemergence, 16 g ai/ha
  Plant response rating (scale of 0 to 100), Cupgrass, Woolly: 0
[3]; Postemergence, 31 g ai/ha
  Plant response rating (scale of 0 to 100), Cupgrass, Woolly: 0
[3]; [4]
  Cupgrass, Woolly plant response rating: 0
[3]; [5]
  Cupgrass, Woolly plant response rating: 0
[3]; [6]
  Plant response rating, Cupgrass, Woolly: 0
[3]; [7]
  Plant response rating, Cupgrass, Woolly: 0
[3]; [8]
  Plant response rating, Cupgrass, Woolly: 0
[3]; [9]
  Plant response rating, Cupgrass, Woolly: 0

## CNN=Cc1nc(C2CC2)nc(N)c1Br [Compound 49]
[1]; [4]
  Corn plant response rating: 0
[1]; [5]
  Corn plant response rating: 0
[1]; [10]
  Plant response rating, Corn: 20
[1]; [11]
  Plant response rating, Corn: 25
[1]; [9]
  Plant response rating, Corn: 15
[1]; [12]
  Plant response rating, Corn: 15
[1]; [13]
  Plant response rating, Corn: 65
[2]; [4]
  Morningglory plant response rating: 50
[2]; [5]
  Morningglory plant response rating: 70
[2]; [10]
  Plant response rating, Morningglory: 80
[2]; [11]
  Plant response rating, Morningglory: 100
[2]; [8]
  Plant response rating, Morningglory: 90
[2]; [9]
  Plant response rating, Morningglory: 95
[2]; [12]
  Plant response rating, Morningglory: 100
[2]; [13]
  Plant response rating, Morningglory: 100
[3]; [4]
  Cupgrass, Woolly plant response rating: 0
[3]; [5]
  Cupgrass, Woolly plant response rating: 15
[3]; [10]
  Plant response rating, Cupgrass, Woolly: 60
[3]; [11]
  Plant response rating, Cupgrass, Woolly: 65
[3]; [8]
  Plant response rating, Cupgrass, Woolly: 0
[3]; [9]
  Plant response rating, Cupgrass, Woolly: 0
[3]; [12]
  Plant response rating, Cupgrass, Woolly: 20
[3]; [13]
  Plant response rating, Cupgrass, Woolly: 25

## CN(C)N=Cc1nc(C2CC2)nc(N)c1Br [Compound 50]
[1]; [4]
  Corn plant response rating: 0
[1]; [5]
  Corn plant response rating: 0
[1]; [10]
  Plant response rating, Corn: 60
[1]; [11]
  Plant response rating, Corn: 65
[1]; [8]
  Plant response rating, Corn: 10
[1]; [9]
  Plant response rating, Corn: 10
[1]; [12]
  Plant response rating, Corn: 20
[1]; [13]
  Plant response rating, Corn: 45
[2]; [4]
  Morningglory plant response rating: 65
[2]; [5]
  Morningglory plant response rating: 80
[2]; [10]
  Plant response rating, Morningglory: 85
[2]; [11]
  Plant response rating, Morningglory: 95
[2]; [8]
  Plant response rating, Morningglory: 80
[2]; [9]
  Plant response rating, Morningglory: 95
[2]; [12]
  Plant response rating, Morningglory: 95
[2]; [13]
  Plant response rating, Morningglory: 100
[3]; [4]
  Cupgrass, Woolly plant response rating: 0
[3]; [5]
  Cupgrass, Woolly plant response rating: 0
[3]; [10]
  Plant response rating, Cupgrass, Woolly: 15
[3]; [11]
  Plant response rating, Cupgrass, Woolly: 30
[3]; [8]
  Plant response rating, Cupgrass, Woolly: 0
[3]; [9]
  Plant response rating, Cupgrass, Woolly: 0
[3]; [12]
  Plant response rating, Cupgrass, Woolly: 0
[3]; [13]
  Plant response rating, Cupgrass, Woolly: 40

## CC(=O)NN=Cc1nc(C2CC2)nc(N)c1Br [Compound 51]
[1]; [4]
  Corn plant response rating: 0
[1]; [5]
  Corn plant response rating: 0
[1]; [10]
  Plant response rating, Corn: 0
[1]; [11]
  Plant response rating, Corn: 0
[2]; [4]
  Morningglory plant response rating: 80
[2]; [5]
  Morningglory plant response rating: 80
[2]; [10]
  Plant response rating, Morningglory: 85
[2]; [11]
  Plant response rating, Morningglory: 100
[3]; [4]
  Cupgrass, Woolly plant response rating: 0
[3]; [5]
  Cupgrass, Woolly plant response rating: 0
[3]; [10]
  Plant response rating, Cupgrass, Woolly: 0
[3]; [11]
  Plant response rating, Cupgrass, Woolly: 0
